Laboratory results reported in PMC12525867, “Aromaticity Tuning in Biaryl Monophosphines and Their Derivatives” (Molecules, 2025).
Converted amounts (≈) assume the structure as drawn.

What was measured:
Assay in all cases: Antibacterial screening, broth microdilution (MIC/MBC)
S. aureus ATCC 29213 = assay type: cell-based, Staphylococcus aureus; conditions: Staphylococcus aureus, ATCC29213; for MIC: S. aureus ATCC 29213, MHB, 24 h, 35 °C, read-out: MIC; for MBC: S. aureus ATCC 29213, read-out: MBC
Experimental: (§1) The antimicrobial activities of a series of compounds 1–5 were tested through the utilization of seven reference species, encompassing both Gram-positive (Staphylococcus aureus ATCC 29213, Staphylococcus epidermidis ATCC 12228, Micrococcus luteus ATCC 10240) and Gram-negative (Escherichia coli ATCC 25922, Klebsiella pneumoniae ATCC 13883, Proteus mirabilis ATCC 12453, Acinetobacter baumannii ATCC 19606) bacteria as model microorganisms. For this purpose, microbial suspensions were prepared in sterile saline (0.85% NaCl) with an optical density of 0.5 McFarland standard, yielding a concentration of 150 × 10^6 CFU/mL (CFU, colony-forming units). All of the stock solutions of the tested compounds were dissolved in DMSO. Amoxicillin (Glentham Life Sciences Ltd., Corsham, UK) was used as a positive control.
(§2) The MIC values of the tested compounds were determined by serial twofold dilutions of 1–5 in Mueller Hinton Broth (MHB, Biomaxima, Lublin, Poland). The range of final 1–5 concentrations used was from 0.49 up to 1000 μg/mL, and for amoxicillin from 0.12 up to 250 μg/mL in the 96-well microtiter plates (Medlab, Raszyn, Poland), starting with 98 μL MHB and 2 μL bacterial inoculum added to each well. Positive controls consisted of 100 μL MHB in each well with the tested compounds at the same concentration range. The negative controls consisted of 100 μL of MHB only. Each set of tests and controls was established with three replicates. The microtiter plates were then subjected to an incubation period of 24 h at a temperature of 35 ± 2 °C. After incubation, the optical density of the microbial growth was measured at a wavelength of 600 nm using a microplate reader, the Biotek Elx800 (BioTek Instruments, Inc., Winooski, VT, USA). The MIC value was defined as the lowest concentration of the tested compound at which there was no visible growth of the tested microorganisms. The determination of the MIC values was achieved by employing the broth microdilution method, in accordance with the recommendations of the European Committee on Antimicrobial Susceptibility Testing (EUCAST). […] Then, the MHA plates were incubated overnight at 35 ± 2 °C. […] The MIC and MBC values were reported in μg/mL, according to the EUCAST reference.

E. coli ATCC 25922 = assay type: cell-based, Escherichia coli; conditions: Escherichia coli, ATCC25922; for MIC: E. coli ATCC 25922, MHB, 24 h, 35 °C, read-out: MIC
Experimental: as §1, §2

K. pneumoniae ATCC 13883 = assay type: cell-based, Klebsiella pneumoniae; conditions: Klebsiella pneumoniae, ATCC13883; K. pneumoniae ATCC 13883, MHB, 24 h, 35 °C; read-out: MIC
Experimental: as §1, §2

[1] = system: S. epidermidis ATCC 12228; assay type: cell-based, Staphylococcus epidermidis; conditions: for MIC / MBC: Staphylococcus epidermidis, ATCC12228; for MIC: S. epidermidis ATCC 12228, MHB, 24 h, 35 °C, read-out: MIC; for MBC: read-out: MBC
Experimental: as §1, §2

COc1ccccc1-c1c(P(=O)(C2CCCCC2)C2CCCCC2)c(OC)c2ccccc2c1OC [Compound 2, Dicyclohexyl[1,4-dimethoxy-3-(2-methoxyphenyl)naphthalen-2-yl]phosphane oxide]
MIC (S. aureus ATCC 29213): 7.82 to 15.6 µg/mL (≈ 15.4 to 30.9 µM)
MBC (S. aureus ATCC 29213): > 1000 µg/mL
MIC (E. coli ATCC 25922): > 1000 µg/mL
MIC (K. pneumoniae ATCC 13883): > 1000 µg/mL
MIC [1]: 3.91 to 7.89 µg/mL (≈ 7.72 to 15.6 µM)
MBC ([1]; S. epidermidis ATCC 12228): > 1000 µg/mL

COc1cc(OC)c(-c2c(P(=O)(C3CCCCC3)C3CCCCC3)c(OC)c3ccccc3c2OC)c(OC)c1 [Compound 1, Dicyclohexyl[1,4-dimethoxy-3-(2,4,6-trimethoxyphenyl)naphthalen-2-yl]phosphane oxide]
MIC (S. aureus ATCC 29213): 15.6 to 31.2 µg/mL (≈ 27.6 to 55.1 µM)
MBC (S. aureus ATCC 29213): > 1000 µg/mL
MIC (E. coli ATCC 25922): 500 to 1000 µg/mL (≈ 882 to 1760 µM)
MIC (K. pneumoniae ATCC 13883): > 1000 µg/mL
type of activity (bactericidal or bacteriostatic) ([1]; S. epidermidis ATCC 12228): bactericidal
MIC [1]: 15.6 to 31.2 µg/mL (≈ 27.6 to 55.1 µM)
MBC ([1]; S. epidermidis ATCC 12228): 250 µg/mL (≈ 441 µM)

COc1cc(OC)c(-c2c(P(=O)(C3CCCCC3)C3CCCCC3)c(O)c3ccccc3c2OC)c(OC)c1 [Compound 3, 2-(Dicyclohexylphosphoryl)-4-methoxy-3-(2,4,6-trimethoxyphenyl)naphthalen-1-ol]
MIC (S. aureus ATCC 29213): 62.5 to 125 µg/mL (≈ 113 to 226 µM)
MBC (S. aureus ATCC 29213): > 1000 µg/mL
MBC (E. coli ATCC 25922; E. coli ATCC 25922): > 1000 µg/mL
MIC (E. coli ATCC 25922): 250 to 500 µg/mL (≈ 452 to 905 µM)
MIC (K. pneumoniae ATCC 13883): 500 µg/mL (≈ 905 µM)
MIC [1]: 31.2 µg/mL (≈ 56.5 µM)
MBC ([1]; S. epidermidis ATCC 12228): > 1000 µg/mL
